Laboratory results as given in PMC10879502, “Linking ATP and allosteric sites to achieve superadditive binding with bivalent EGFR kinase inhibitors” (Communications Chemistry, 2024).
Where two headings read alike, the source gives them in different places. One block for each molecule: values may come before it.

Columns and labels:
[1] = target: T1, EGFR L858R/T790M (LRTM) kinase domain (Homo sapiens, UniProt P00533, L858R/T790M); assay: HTRF KinEASE-TK kinase activity assay; assay type: biochemical
T1 construct: The EGFR kinase domain (residues 696–1022) was cloned into pTriEx; 6xHis (N, cleaved yes); GST (N, cleaved yes); made in house; host or cells: SF9 insect cells, baculovirus

[2] = test system: Ba/F3 cells, wildtype EGFR; settings: Ba/F3 ref 4 Wittlinger and Heppner; read-out: EGFR EC50, wt; cited from earlier work
Ba/F3 cells, L858R EGFR = settings: Ba/F3 ref 4 Wittlinger and Heppner; read-out: EGFR EC50, LR; cited from earlier work
[3] = test system: Ba/F3 cells, L858R/T790M EGFR; settings: Ba/F3 ref 4 Wittlinger and Heppner; read-out: EGFR EC50, LR/TM; cited from earlier work
[4] = test system: Ba/F3 cells, LR/TM/CS EGFR; settings: Ba/F3 ref 4 Wittlinger and Heppner; cited from earlier work
WT EGFR kinase domain = target: T2, WT EGFR kinase domain (Homo sapiens, UniProt P00533); assay: HTRF KinEASE-TK kinase activity assay; assay type: biochemical; settings: enzyme 10 nM, ATP 100 µM; read-out: Biochemical EGFR IC50, WT
T2 construct: The EGFR kinase domain (residues 696–1022) was cloned into pTriEx; 6xHis (N, cleaved yes); GST (N, cleaved yes); made in house; host or cells: SF9 insect cells, baculovirus

[5] = target: T3, EGFR L858R/T790M/C797S (LRTMCS) kinase domain (Homo sapiens, UniProt P00533, C797S/L858R/T790M); assay: HTRF KinEASE-TK kinase activity assay; assay type: biochemical; settings: enzyme 0.02 nM, ATP 100 µM; read-out: Biochemical EGFR IC50, LRTMCS
T3 construct: The EGFR kinase domain (residues 696–1022) was cloned into pTriEx; 6xHis (N, cleaved yes); GST (N, cleaved yes); made in house; host or cells: SF9 insect cells, baculovirus

[6] = Table S1, ATP 100 µM, read-out: IC50, LRTM

T1 sequence (P00533 696-1022 T790M/L858R): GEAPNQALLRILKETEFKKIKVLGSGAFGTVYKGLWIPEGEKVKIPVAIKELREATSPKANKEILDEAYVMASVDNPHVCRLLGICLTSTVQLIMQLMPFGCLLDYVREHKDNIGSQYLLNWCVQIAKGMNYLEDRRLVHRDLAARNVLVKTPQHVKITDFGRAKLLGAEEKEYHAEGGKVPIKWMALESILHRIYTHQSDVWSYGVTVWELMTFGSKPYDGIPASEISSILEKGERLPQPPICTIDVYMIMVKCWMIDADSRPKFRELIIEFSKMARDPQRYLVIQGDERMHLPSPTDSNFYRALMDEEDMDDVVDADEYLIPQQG
T3 sequence (P00533 696-1022 T790M/C797S/L858R): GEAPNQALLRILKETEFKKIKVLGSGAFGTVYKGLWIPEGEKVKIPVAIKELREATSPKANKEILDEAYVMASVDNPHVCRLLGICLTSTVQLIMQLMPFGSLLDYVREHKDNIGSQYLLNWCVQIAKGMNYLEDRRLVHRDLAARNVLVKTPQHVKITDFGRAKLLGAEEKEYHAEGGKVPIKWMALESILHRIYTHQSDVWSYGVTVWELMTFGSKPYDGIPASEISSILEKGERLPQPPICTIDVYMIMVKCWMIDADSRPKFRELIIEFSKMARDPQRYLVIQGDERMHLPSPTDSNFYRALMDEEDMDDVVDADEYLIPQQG
T2 sequence (P00533 696-1022): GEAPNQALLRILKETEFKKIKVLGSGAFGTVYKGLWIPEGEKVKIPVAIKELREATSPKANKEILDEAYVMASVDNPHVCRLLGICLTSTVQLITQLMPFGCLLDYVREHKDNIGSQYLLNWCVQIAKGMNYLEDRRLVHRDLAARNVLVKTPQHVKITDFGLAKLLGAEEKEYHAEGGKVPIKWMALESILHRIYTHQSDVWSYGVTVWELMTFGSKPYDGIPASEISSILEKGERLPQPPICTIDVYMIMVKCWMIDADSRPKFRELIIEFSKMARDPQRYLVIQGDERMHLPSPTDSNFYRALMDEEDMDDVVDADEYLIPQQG

IC50, LRTM ([1]; Table S1, ATP 100 µM): virtually inactive | IC50 [1, 6]: ≥ 10000 nM
Compound: O=C1Nc2c(cccc2C(=O)Nc2ccccc2)Nc2ccccc21 [Compound 10]

Compound: C=CC(=O)Nc1cc(Nc2nccc(-c3cn(C)c4ccccc34)n2)c(OC)cc1N(C)CCN(C)C [AZD9291]
EC50 [2]: 110 ± 40 nM | EC50 (Ba/F3 cells, L858R EGFR): 3.3 ± 0.6 nM | EC50 [3]: 8 nM | EC50 [4]: 1200 ± 130 nM

IC50 (WT EGFR kinase domain): > 1000 nM | IC50 ([1]; enzyme 0.02 nM, ATP 100 µM, read-out: Biochemical EGFR IC50, LRTM): 52 nM | IC50 [5]: 39 to 59 nM
Compound: O=C1c2cc(F)ccc2Nc2ccccc2N1Cc1ccccc1 [Compound 9, reference compound]

IC50 [1, 6]: ≥ 10000 nM
Compound: COc1ccc2c(c1)C(=O)Nc1c(cccc1C(=O)Nc1nccs1)N2 [Compound 12]
